Results as given in PMC10107299, “Neutralizing the Impact of the Virulence Factor LecA from Pseudomonas aeruginosa on Human Cells with New Glycomimetic Inhibitors” (Angewandte Chemie (International Ed. in English), 2023).

Legend:
[1] = tested on: plasma protein; assay: Plasma protein binding (rapid equilibrium device), murine plasma; assay type: in vitro ADME, mouse; details: 1 µM
Description: mixer (Eppendorf). Acetonitrile and caffeine were dispensed using a Mantis Formulatrix. Then samples were centrifuged for 20 min at 2.270 x g at 4 °C and the supernatants were transferred to 96-well Greiner V-bottom plates. Peak areas of each compound and of the internal standard were analyzed using the MultiQuant 3.0 software (AB Sciex). Peak areas of the respective compound were normalized to the internal standard peak area and to the respective peak areas at time point 0 min: (C/D)/(A/B) with A: peak area of the compound at time point 0 min, B: peak area of the internal standard at time point 0 min, C: peak area of the compound at the respective time point, D: peak area of the internal standard at the respective time point. […]
Assessment of plasma protein binding
Plasma protein binding was assessed using the rapid equilibrium device (RED) system from ThermoFisher. Compounds were dissolved in DMSO. […]
high plasma protein binding. Compounds were diluted in murine plasma (from CD-1 mice, pooled) or in human plasma (human donors, both genders, pooled) to a final concentration of 1 µM. Dialysis buffer and plasma samples were added to the respective chambers according the manufacturer’s protocol. The RED plate was sealed with a tape and incubated at 37 °C for 2 hours at 800 rpm on an Eppendorf MixMate vortex-mixer. Then samples were withdrawn from the respective chambers. To 25 µL of each dialysis sample, 25 µL of plasma and to 25 µL of plasma sample, 25 µL of dialysis buffer was added. Then 150 µL ice-cold extraction solvent (ACN/H2O (90:10) containing 12.5 ng/mL caffeine as internal standard) was added. Samples were incubated for 30 min on ice. Then samples were centrifuged at 4 °C at 2270 x g for 10 min.
Supernatants were transferred to Greiner V-bottom 96-well plates and sealed with a tape. The […]
percentage of bound compound was calculated as follows:
(1) % free = (concentration buffer chamber / concentration plasma chamber) *100 […]
Samples were analyzed using an Agilent 1290 Infinity II HPLC system coupled to an AB Sciex QTrap 6500plus mass spectrometer. LC conditions were as follows: column: Agilent […]
Zorbax Eclipse Plus C18, 50x2.1 mm, 1.8 µm; temperature: 30 °C; injection volume: 5 µL per […]
sample; flow rate: 700 µL/min. Samples were run under acidic and buffered conditions.
Solvents for acidic conditions: A1: water + 0.1% formic acid; solvent B1: 95% acetonitrile/5% […]
H2O + 0.1% formic acid; solvents for buffered conditions: A2: 95% water + 5% acetonitrile + […]
5 mM ammonium acetate + 40 µL/L acetic acid; B2: 95% acetonitrile + 5% water + 5 mM […]
ammonium acetate + 40 µL/L acetic acid. The same gradient was applied for acidic and […]
buffered conditions: 99% A at 0 min, 99% A until 1 min, 99% - 0% A from 1 min to 4.0 min, […]
0% A until 5.0 min. Mass transitions for controls and compounds are depicted in the following […]

[2] = In vivo pharmacokinetic study in rats; parameters: species or system Sprague-Dawley rats
Description: Encouraged by these promising in vitro results, an in vivo pharmacokinetic study was conducted for H2 and L2 in mice (1 mg kg^−1, i. v.) and in rats for L2 (10 mg kg^−1, i. v.). Compound concentrations were monitored in plasma and urine (Figure 6). H2 and L2 were cleared from mouse plasma within 1 h. Both compounds rapidly reached high concentrations in urine, several orders of magnitude above their respective in vitro LecA binding affinity. In fact, concentrations above the K ds were detected over the entire observation period of 5 h. […] In rats, higher amounts of L2 were detected both in plasma and urine, not solely corresponding to the 10‐fold increased dose. […] Importantly, high levels of L2 were present in rat urine even 24 h after administration. […]
Pharmacokinetic studies in rat
The in vivo part of the study was performed by the CRO Pharmacelsus (Saarbrücken, Germany). For rat in vivo pharmacokinetic studies, male Sprague-Dawley rats (Janvier-Labs, France) with 350 g - 400 g body weight were used. All experimental procedures were approved by and conducted in accordance with the regulations of the local Animal Welfare authorities (Landesamt für Gesundheit und Verbraucherschutz, Abteilung Lebensmittel- und Veterinärwesen, Saarbrücken) and any clinical signs of toxicity and any changes in behavior of the animals were recorded. Food and water were provided ad libitum throughout the study. Rats were provided with a catheter in the jugular vein 2 - 3 days prior to drug administration and blood sampling. According to national animal welfare guidelines, rats were treated once with Carprofen (5 mg/kg) directly after catheterization. Catheter was rinsed daily with K3EDTA. L2 was dissolved in PBS (pH 7.4) and administered i.v. in individual PK studies (N = 3) at 10 mg/kg in a volume of 2 mL/kg. At t = 0 h, rats were placed into metabolic cages for drug administration and immediate collection of urine and faeces samples. Further excretion products were collected during 0 - 2 h, 2 - 4 h, 4 - 8 h and 8 - 24 h. Excreta sample volumes were determined and immediately stored at -80 °C until analysis by LC-MS. 80 µL K3EDTA-treated blood was collected at t = 0.083 h, 0.25 h, 0.5 h, 1 h, 2 h, 4 h, 6 h, 8 h and 24 h post dose and samples were stored on ice until centrifugation (10 minutes at 4500 x g, 4 °C). Plasma was prepared within 45 min after collection, frozen and stored at -80 °C until analysis by LC-MS. […]
clinical signs observed after dosing.
Bioanalysis of pharmacokinetic samples from mice and from rat
First, a calibration curve was prepared by spiking different concentrations of L2 and H2 into mouse plasma, rat plasma or mouse urine (matrix for mouse and rat PK samples) from CD-1 mice. Glipizide was used as an internal standard. In addition, quality control samples (QCs) were prepared for L2 and H2 in plasma and urine. The following extraction procedures were used: 7.5 µl of a plasma sample or 15 µl of a urine sample (calibration samples, QCs or PK samples) was extracted with 35 µl of methanol containing 12.5 ng/ml of glipizide as internal standard for 15 min at 2000 rpm on an Eppendorf MixMate vortex mixer. Then samples were spun down at 15870 x g for 10 min. Supernatants were transferred to standard HPLC-glass vials. Samples from the mouse PK study with H2 in mice and from the rat PK study with L2 were analyzed via HPLC-MS/MS as described in the HPLC-MS analysis section above. PK samples from the mouse PK study with L2 were analyzed using an Agilent 1290 Infinity II HPLC system coupled to an AB Sciex QTrap 7500 mass spectrometer. LC conditions were the same as for the analysis of the samples from the mouse PK study with H2 and from the rat PK study with L2. Mass transitions for controls and compounds are depicted in the following table for the AB Sciex Trap 7500 mass spectrometer.
Peaks of PK samples were quantified using the calibration curve. The accuracy of the calibration curve was determined using QCs independently prepared on different days. […]

Row | SMILES | PPB Mouse [1] | L2 in rat urine ([2]; 24 h after administration, 10 mg kg^−1 i.v.) | half-life ([2]; male, Sprague-Dawley, iv, rat plasma, 10 mg kg^−1 i.v., N=3) | AUC ([2]; male, Sprague-Dawley, iv, rat plasma, 10 mg kg^−1 i.v., read-out: area under the curve (AUC)) | MRT ([2]; male, Sprague-Dawley, iv, rat plasma, 10 mg kg^−1 i.v., read-out: mean residence time (converted)) | clearance ([2]; male, Sprague-Dawley, plasma, iv, rat, 10 mg kg^−1 i.v.) | Vd ([2]; male, Sprague-Dawley, plasma, iv, rat, 10 mg kg^−1 i.v., read-out: distribution volume VD) | Time plasma concentration exceeds on-target affinity ([2]; rat plasma, 10 mg kg^−1 i.v.) | Behavior and clinical signs after dosing ([2]; rat, 10 mg/kg i.v.)
1 | O=C(CCc1ccc(O[C@@H]2O[C@H](CO)[C@H](O)[C@H](O)[C@H]2O)cc1)Nc1ccc(OCCOc2ccc(NC(=O)CCc3ccc(O[C@@H]4O[C@H](CO)[C@H](O)[C@H](O)[C@H]4O)cc3)cn2)nc1 [Compound H2] | 97.6 ± 2.1% | – | – | – | – | – | – | – | –
2 | O=C(CCc1ccc(O[C@@H]2O[C@H](CO)[C@H](O)[C@H](O)[C@H]2O)cc1)Nc1ccc(CCc2ccc(NC(=O)CCc3ccc(O[C@@H]4O[C@H](CO)[C@H](O)[C@H](O)[C@H]4O)cc3)cc2S(=O)(=O)O)c(S(=O)(=O)O)c1 [Compound L2] | 14.5 ± 6.8% | high levels | 37 ± 12 min | 19.7 ± 12.8 µM·h | 41 min | 9.84 ± 5 mL/min/kg | 0.46 L/kg | at least 6 h | normal behavior
